Reference: ChEMBL document CHEMBL1697781, “Assessment of the health effects of chemicals in humans: II. Construction of an adverse effects database for QSAR modeling” (Curr Drug Discov Technol, 2004)

Legend:
Conditions in all cases: human; call rule not given here
Hepatotoxicity [1] = experiment: FDA HLAED, liver enzyme composite activity
Hepatotoxicity [2] = experiment: FDA HLAED, gamma-glutamyl transferase (GGT) increase
Hepatotoxicity [3] = experiment: FDA HLAED, alkaline phosphatase increase
Hepatotoxicity [4] = experiment: FDA HLAED, serum glutamic pyruvic transaminase (SGPT) increase
Hepatotoxicity [5] = experiment: FDA HLAED, serum glutamic oxaloacetic transaminase (SGOT) increase
Hepatotoxicity [6] = experiment: FDA HLAED, lactate dehydrogenase (LDH) increase

| Structure (SMILES) | Composite Activity - Active (Hepatotoxicity [1]) | Composite Activity - Marginal (Hepatotoxicity [1]) | Composite Activity - Score (Hepatotoxicity [1]) | GGT Increase - Activity Score (Hepatotoxicity [2]) | GGT Increase - Index Value (Hepatotoxicity [2]) | GGT Increase - Number of Reports (Hepatotoxicity [2]) | Alkaline Phosphatase Increase - Activity Score (Hepatotoxicity [3]) | Alkaline Phosphatase Increase - Index Value (Hepatotoxicity [3]) | Alkaline Phosphatase Increase - Number of Reports (Hepatotoxicity [3]) | SGPT Increase - Activity Score (Hepatotoxicity [4]) | SGPT Increase - Index Value (Hepatotoxicity [4]) | SGPT Increase - Number of Reports (Hepatotoxicity [4]) | SGOT Increase - Activity Score (Hepatotoxicity [5]) | SGOT Increase - Index Value (Hepatotoxicity [5]) | SGOT Increase - Number of Reports (Hepatotoxicity [5]) | LDH Increase - Activity Score (Hepatotoxicity [6]) | LDH Increase - Index Value (Hepatotoxicity [6]) | LDH Increase - Number of Reports (Hepatotoxicity [6]) |
| --- | --- | --- | --- | --- | --- | --- | --- | --- | --- | --- | --- | --- | --- | --- | --- | --- | --- | --- |
| COc1ccc(CC2c3cc(OC)c(OC)cc3CC[N+]2(C)CCC(=O)OCCCCCOC(=O)CC[N+]2(C)CCc3cc(OC)c(OC)cc3C2Cc2ccc(OC)c(OC)c2)cc1OC (stereo not drawn) | 0 | 0 | Inactive | Inactive | 0 | < 4 | Inactive | 0 | < 4 | Inactive | 0 | < 4 | Inactive | 0 | < 4 | Inactive | 0 | < 4 |
| CC1=C(CC(=O)O)c2cc(F)ccc2/C1=C\c1ccc([S+](C)[O-])cc1 (stereo not drawn) | 0 | 0 | Inactive | Inactive | 0 | < 4 | Inactive | 0 | < 4 | Inactive | 0 | < 4 | Inactive | 0 | < 4 | Inactive | 0 | < 4 |
| CO/N=C(\C(=O)N[C@@H]1C(=O)N2C(C(=O)[O-])=C(C[N+]3(C)CCCC3)CS[C@H]12)c1csc(N)n1 | 1 | 0 | Inactive | Inactive | 27.4 | < 4 | Inactive | 1 | < 4 | Active | 68.4 | >= 4 | Inactive | 13.7 | < 4 | Inactive | 27.4 | < 4 |
| CC(C)(C)NC(=O)[C@@H]1CN(Cc2cccnc2)CCN1C[C@@H](O)C[C@@H](Cc1ccccc1)C(=O)N[C@H]1c2ccccc2C[C@H]1O.O | 5 | 0 | Active | Active | 13.7 | < 4 | Active | 54.8 | >= 4 | Active | 116.4 | >= 4 | Active | 137 | >= 4 | Active | 44.5 | >= 4 |
| C=C1CC[C@@]2(O)[C@H]3Cc4ccc(O)c5c4[C@@]2(CCN3CC2CC2)[C@H]1O5 | 0 | 0 | Inactive | Inactive | 0 | < 4 | Inactive | 0 | < 4 | Inactive | 0 | < 4 | Inactive | 0 | < 4 | Inactive | 0 | < 4 |
| C[C@H]1O[C@H](O[C@H]2[C@H](O)[C@@H](O)[C@@H](O[C@H]3[C@H](O)[C@@H](O)C(O)O[C@@H]3CO)O[C@@H]2CO)[C@H](O)[C@@H](O)[C@@H]1N[C@H]1C=C(CO)[C@@H](O)[C@H](O)[C@H]1O (stereo partly drawn) [ACARBOSE] | 3 | 0 | Active | Active | 4.3 | >= 4 | Inactive | 0 | < 4 | Active | 5.2 | >= 4 | Active | 5.2 | >= 4 | Inactive | 2.6 | < 4 |
